Experimental data from patent US9409952B2, “Peptide-compound cyclization method” (Chugai Seiyaku Kabushiki Kaisha, priority 2011, dated 2016).
Starred links: 1 amine or outer side, 2 acyl side, 3 side chain; linkers in the order of their positions; H or OH if unused. Positions of bridges follow the written chain, without caps; N, C: chain ends. Non-standard residues stand in square brackets, D forms with d. Residues, ends and D or L forms follow the SMILES beside them. *: point of attachment. NMeF = CN[C@@H](Cc1ccccc1)C(=O)O; NMeGABA = CN(CCCC(=O)[*:2])[*:1]; NMeI = CC[C@H](C)[C@H](NC)C(=O)O; NMeβAla = CN(CCC(=O)[*:2])[*:1]; NMeL = CN[C@@H](CC(C)C)C(=O)O; NMeV = CN[C@H](C(=O)O)C(C)C; NMeA = CN[C@@H](C)C(=O)O; Piperidide = C1CCN(*)CC1; dNMeA = CN[C@H](C)C(=O)O; Sar = CNCC(=O)O; tBu = CC(C)(C)*

Key:
[1] = PAMPA (parallel artificial membrane permeability assay); type: in vitro ADME; settings: PAMPA; membrane permeation rate (Pe); 50 mM MOPSO buffer pH 6.5 with 5.0% glycocholic acid, 37° C., 18 hours; read-out: iPAMPA Pe
In short: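 Artificial membrane was 10% (w/v) egg lecithin plus 0.5% (w/v) cholesterol in dodecane on a PVDF filter. A 10 mM DMSO stock was added at 0.5% (v/v) to donor buffer (50 mM MOPSO, pH 6.5, 5.0% glycocholic acid). After 18 h at 37 °C, LC/MS or LC/UV gave donor and acceptor levels for Pe.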

[2] = Metabolic stability in human hepatic microsome; type: in vitro ADME; settings: microsomes, pH 7.4; human hepatic microsome, NADPH(+); read-out: CL NADPH(+)

CC[C@H](C)[C@H]1C(=O)N[C@@H](CC(C)C)C(=O)N(C)[C@@H](CC(C)C)C(=O)N[C@H](C(=O)N2CCCCC2)CC(=O)N(C)CCCC(=O)N(C)[C@@H](CC(C)C)C(=O)N[C@@H]([C@@H](C)O)C(=O)N(C)[C@@H](C)C(=O)N[C@@H](C)C(=O)N(C)[C@@H](Cc2ccccc2)C(=O)N(C)[C@@H](Cc2ccccc2)C(=O)N1C [DP-249] ([NMeGABA][NMeL]T[NMeA]A[NMeF][NMeF][NMeI]L[NMeL]D-Piperidide; lactam N-11)
Papp at 18 hours, 50 µM [1]: 34 ×10⁻⁶ cm/s
microsomal CLint at 1 uM [2]: 151 µL/min/mg

CC[C@H](C)[C@H]1C(=O)N(C)[C@@H](C(C)C)C(=O)N(C)[C@@H](CC(C)C)C(=O)N[C@@H]([C@@H](C)O)C(=O)N[C@H](C(=O)N2CCCCC2)CC(=O)N(C)CCCC(=O)N[C@@H](Cc2ccccc2)C(=O)N(C)[C@@H](CC(C)C)C(=O)N(C)[C@@H](C)C(=O)N(C)[C@@H](Cc2ccccc2)C(=O)N[C@@H](C)C(=O)N1C [DP-250] ([NMeGABA]F[NMeL][NMeA][NMeF]A[NMeI][NMeV][NMeL]TD-Piperidide; lactam N-11)
Papp at 18 hours, 50 µM [1]: 29 ×10⁻⁶ cm/s
microsomal CLint at 1 uM [2]: 42 µL/min/mg

CC[C@H](C)[C@H]1C(=O)N[C@H](C(=O)N2CCCCC2)CC(=O)N(C)CCCC(=O)N(C)[C@@H](CC(C)C)C(=O)N[C@@H](C)C(=O)N(C)[C@@H](CC(C)C)C(=O)N(C)[C@@H](Cc2ccccc2)C(=O)N(C)[C@@H](CC(C)C)C(=O)N[C@@H]([C@@H](C)O)C(=O)N(C)[C@@H](C)C(=O)N(C)[C@@H](Cc2ccccc2)C(=O)N1C [DP-251] ([NMeGABA][NMeL]A[NMeL][NMeF][NMeL]T[NMeA][NMeF][NMeI]D-Piperidide; lactam N-11)
Papp at 18 hours, 50 µM [1]: 24 ×10⁻⁶ cm/s
microsomal CLint at 1 uM [2]: 45 µL/min/mg

CC[C@H](C)[C@H]1C(=O)N(C)[C@@H](CC(C)C)C(=O)N[C@@H](Cc2ccccc2)C(=O)N[C@@H]([C@@H](C)O)C(=O)N[C@@H](CC(C)C)C(=O)N(C)[C@@H](Cc2ccccc2)C(=O)N(C)[C@@H](C(C)C)C(=O)N[C@H](C(=O)N2CCCCC2)CC(=O)N[C@H](C)C(=O)N[C@@H](C)C(=O)N1C [DP-252] ([dA]A[NMeI][NMeL]FTL[NMeF][NMeV]D-Piperidide; lactam N-10)
Papp at 18 hours, 50 µM [1]: 47 ×10⁻⁶ cm/s
microsomal CLint at 1 uM [2]: 119 µL/min/mg

CC[C@H](C)[C@H]1C(=O)N[C@H](C(=O)N2CCCCC2)CC(=O)N[C@H](C(C)C)C(=O)N[C@@H]([C@@H](C)O)C(=O)N(C)[C@@H](C)C(=O)N(C)[C@@H](C(C)C)C(=O)N[C@@H](Cc2ccccc2)C(=O)N(C)[C@@H](CC(C)C)C(=O)N[C@@H](C)C(=O)N(C)CC(=O)N1C [DP-253] ([dV]T[NMeA][NMeV]F[NMeL]A[Sar][NMeI]D-Piperidide; lactam N-10)
Papp at 18 hours, 50 µM [1]: 7.5 ×10⁻⁶ cm/s
microsomal CLint at 1 uM [2]: 42 µL/min/mg

CC[C@H](C)[C@H]1C(=O)N[C@@H](C)C(=O)N[C@H](C(=O)N2CCCCC2)CC(=O)N[C@H](C(C)C)C(=O)N[C@@H](Cc2ccccc2)C(=O)N(C)[C@@H](C(C)C)C(=O)N(C)[C@@H](C)C(=O)N[C@@H]([C@@H](C)O)C(=O)N(C)CC(=O)N(C)[C@@H](CC(C)C)C(=O)N1C [DP-254] ([dV]F[NMeV][NMeA]T[Sar][NMeL][NMeI]AD-Piperidide; lactam N-10)
Papp at 18 hours, 50 µM [1]: 3.5 ×10⁻⁶ cm/s
microsomal CLint at 1 uM [2]: 13 µL/min/mg

CC[C@H](C)[C@@H]1NC(=O)[C@H](CC(C)C)N(C)C(=O)[C@H](Cc2ccccc2)N(C)C(=O)[C@@H](C(C)C)NC(=O)C[C@@H](C(=O)N2CCCCC2)NC(=O)[C@H](CC(C)C)N(C)C(=O)[C@H](C)N(C)C(=O)[C@H]([C@@H](C)O)NC(=O)[C@H](Cc2ccccc2)N(C)C(=O)[C@H](C)N(C)C1=O [DP-255] ([dV][NMeF][NMeL]I[NMeA][NMeF]T[NMeA][NMeL]D-Piperidide; lactam N-10)
Papp at 18 hours, 50 µM [1]: 48 ×10⁻⁶ cm/s
microsomal CLint at 1 uM [2]: 79 µL/min/mg

CC[C@H](C)[C@H]1C(=O)N(C)[C@@H](CC(C)C)C(=O)N(C)[C@@H](Cc2ccccc2)C(=O)N[C@@H]([C@@H](C)O)C(=O)N(C)[C@@H](Cc2ccccc2)C(=O)N(C)[C@@H](CC(C)C)C(=O)N(C)[C@@H](CC(C)C)C(=O)N[C@H](C(=O)N2CCCCC2)CC(=O)N[C@H](C(C)C)C(=O)N[C@@H](C)C(=O)N1C [DP-256] ([dV]A[NMeI][NMeL][NMeF]T[NMeF][NMeL][NMeL]D-Piperidide; lactam N-10)
Papp at 18 hours, 50 µM [1]: 19 ×10⁻⁶ cm/s
microsomal CLint at 1 uM [2]: 44 µL/min/mg

CC[C@H](C)[C@H]1C(=O)N[C@H](C(=O)N2CCCCC2)CC(=O)N[C@H](C(C)C)C(=O)N(C)[C@@H](CC(C)C)C(=O)N(C)[C@@H](Cc2ccccc2)C(=O)N(C)[C@@H](C)C(=O)N[C@@H]([C@@H](C)O)C(=O)N(C)CC(=O)N(C)[C@@H](CC(C)C)C(=O)N[C@@H](COC(C)(C)C)C(=O)N1C [DP-257] ([dV][NMeL][NMeF][NMeA]T[Sar][NMeL]S(tBu)[NMeI]D-Piperidide; lactam N-10)
Papp at 18 hours, 50 µM [1]: 33 ×10⁻⁶ cm/s
microsomal CLint at 1 uM [2]: 46 µL/min/mg

CC[C@H](C)[C@@H]1NC(=O)[C@H](C)N(C)C(=O)[C@H](C)N(C)C(=O)C[C@@H](C(=O)N2CCCCC2)NC(=O)[C@H](CC(C)C)N(C)C(=O)[C@H](Cc2ccccc2)N(C)C(=O)[C@H](C)N(C)C(=O)[C@H]([C@@H](C)O)NC(=O)[C@H](Cc2ccccc2)N(C)C(=O)[C@H](CC(C)C)N(C)C1=O [DP-258] ([NMeA][NMeA]I[NMeL][NMeF]T[NMeA][NMeF][NMeL]D-Piperidide; lactam N-10)
Papp at 18 hours, 50 µM [1]: 52 ×10⁻⁶ cm/s
microsomal CLint at 1 uM [2]: 188 µL/min/mg

CC[C@H](C)[C@H]1C(=O)N(C)[C@@H](CC(C)C)C(=O)N(C)[C@@H](Cc2ccccc2)C(=O)N[C@@H](CC(C)C)C(=O)N(C)[C@@H](C(C)C)C(=O)N[C@@H](Cc2ccccc2)C(=O)N[C@@H]([C@@H](C)O)C(=O)N[C@H](C(=O)N2CCCCC2)CC(=O)N(C)CCC(=O)N[C@@H](C)C(=O)N1C [DP-259] ([NMeβAla]A[NMeI][NMeL][NMeF]L[NMeV]FTD-Piperidide; lactam N-10)
Papp at 18 hours, 50 µM [1]: 28 ×10⁻⁶ cm/s
microsomal CLint at 1 uM [2]: 91 µL/min/mg

CC(C)C[C@H]1C(=O)N[C@@H]([C@@H](C)O)C(=O)N(C)[C@@H](Cc2ccccc2)C(=O)N(C)[C@@H](CC(C)C)C(=O)NCC(=O)N(C)[C@@H](C(C)C)C(=O)N[C@@H](Cc2ccccc2)C(=O)N[C@H](C(=O)N2CCCCC2)CC(=O)N(C)[C@H](C)C(=O)N[C@@H](COC(C)(C)C)C(=O)N1C [DP-260] ([dNMeA]S(tBu)[NMeL]T[NMeF][NMeL]G[NMeV]FD-Piperidide; lactam N-10)
Papp at 18 hours, 50 µM [1]: 44 ×10⁻⁶ cm/s
microsomal CLint at 1 uM [2]: 259 µL/min/mg

CC[C@H](C)[C@@H]1NC(=O)[C@H](C)N(C)C(=O)CCCN(C)C(=O)C[C@@H](C(=O)N2CCCCC2)NC(=O)[C@H](CC(C)C)N(C)C(=O)[C@H](C)N(C)C(=O)[C@H]([C@@H](C)O)NC(=O)[C@H](Cc2ccccc2)N(C)C(=O)[C@H](Cc2ccccc2)N(C)C(=O)[C@H](CC(C)C)N(C)C1=O [DP-261] ([NMeGABA][NMeA]I[NMeL][NMeF][NMeF]T[NMeA][NMeL]D-Piperidide; lactam N-10)
Papp at 18 hours, 50 µM [1]: 27 ×10⁻⁶ cm/s
microsomal CLint at 1 uM [2]: 84 µL/min/mg

CC[C@H](C)[C@H]1C(=O)N(C)[C@@H](CC(C)C)C(=O)N[C@H](C(=O)N2CCCCC2)CC(=O)N(C)CCCC(=O)N[C@@H]([C@@H](C)O)C(=O)N(C)[C@@H](C)C(=O)N(C)[C@@H](Cc2ccccc2)C(=O)N(C)[C@@H](Cc2ccccc2)C(=O)N(C)[C@@H](CC(C)C)C(=O)NCC(=O)N1C [DP-262] ([NMeGABA]T[NMeA][NMeF][NMeF][NMeL]G[NMeI][NMeL]D-Piperidide; lactam N-10)
Papp at 18 hours, 50 µM [1]: 38 ×10⁻⁶ cm/s
microsomal CLint at 1 uM [2]: 94 µL/min/mg

CC(C)C[C@H]1C(=O)N(C)[C@@H](Cc2ccccc2)C(=O)N(C)[C@@H](CC(C)C)C(=O)N[C@H](C(=O)N2CCCCC2)CC(=O)N[C@H](C)C(=O)N[C@@H](C)C(=O)N[C@@H]([C@@H](C)O)C(=O)N(C)[C@@H](C)C(=O)N[C@@H](Cc2ccccc2)C(=O)N1C [DP-263] ([dA]AT[NMeA]F[NMeL][NMeF][NMeL]D-Piperidide; lactam N-9)
Papp at 18 hours, 50 µM [1]: 34 ×10⁻⁶ cm/s
microsomal CLint at 1 uM [2]: 136 µL/min/mg

CC(C)C[C@@H]1NC(=O)[C@H](CC(C)C)N(C)C(=O)[C@@H](C(C)C)NC(=O)C[C@@H](C(=O)N2CCCCC2)NC(=O)[C@H](CC(C)C)N(C)C(=O)[C@H](Cc2ccccc2)N(C)C(=O)[C@H](C)N(C)C(=O)[C@H]([C@@H](C)O)NC(=O)[C@H](Cc2ccccc2)N(C)C1=O [DP-264] ([dV][NMeL]L[NMeF]T[NMeA][NMeF][NMeL]D-Piperidide; lactam N-9)
Papp at 18 hours, 50 µM [1]: 37 ×10⁻⁶ cm/s
microsomal CLint at 1 uM [2]: 94 µL/min/mg

CC(C)C[C@H]1C(=O)N[C@@H](COC(C)(C)C)C(=O)N[C@H](C(=O)N2CCCCC2)CC(=O)N[C@H](C(C)C)C(=O)N(C)[C@@H](Cc2ccccc2)C(=O)N(C)[C@@H](C)C(=O)N(C)[C@@H](CC(C)C)C(=O)N[C@@H]([C@@H](C)O)C(=O)N(C)[C@@H](C)C(=O)N1C [DP-266] ([dV][NMeF][NMeA][NMeL]T[NMeA][NMeL]S(tBu)D-Piperidide; lactam N-9)
Papp at 18 hours, 50 µM [1]: 43 ×10⁻⁶ cm/s
microsomal CLint at 1 uM [2]: 134 µL/min/mg

CC(C)C[C@H]1C(=O)N[C@@H](COC(C)(C)C)C(=O)N[C@H](C(=O)N2CCCCC2)CC(=O)N(C)[C@@H](C)C(=O)N(C)[C@@H](C)C(=O)N(C)[C@@H](Cc2ccccc2)C(=O)N(C)[C@@H](CC(C)C)C(=O)N[C@@H]([C@@H](C)O)C(=O)N(C)[C@@H](C)C(=O)N1C [DP-267] ([NMeA][NMeA][NMeF][NMeL]T[NMeA][NMeL]S(tBu)D-Piperidide; lactam N-9)
Papp at 18 hours, 50 µM [1]: 25 ×10⁻⁶ cm/s
microsomal CLint at 1 uM [2]: 75 µL/min/mg

CC(C)C[C@@H]1NC(=O)[C@H](Cc2ccccc2)N(C)C(=O)CCN(C)C(=O)C[C@@H](C(=O)N2CCCCC2)NC(=O)[C@H](CC(C)C)N(C)C(=O)[C@H](C)N(C)C(=O)[C@H]([C@@H](C)O)NC(=O)[C@H](CC(C)C)N(C)C(=O)[C@H](Cc2ccccc2)N(C)C1=O [DP-268] ([NMeβAla][NMeF]L[NMeF][NMeL]T[NMeA][NMeL]D-Piperidide; lactam N-9)
Papp at 18 hours, 50 µM [1]: 50 ×10⁻⁶ cm/s
microsomal CLint at 1 uM [2]: 508 µL/min/mg
